Assay results reported in patent US11814379B2, “Cyano quinoline amide compounds as HER2 inhibitors and methods of use” (DANA-FARBER CANCER INSTITUTE, INC., priority 2018, dated 2023).

Columns and labels:
[1] = test system: H1819 (Her2 amplification); experiment: Antiproliferative activities in lung cancer cells, H1819; format: cell-based; settings: NCI-H1819
Protocol: (§1) Cell growth and growth inhibition were evaluated by […] (MTS) assay. A total of 3,000-4,000 cells were plated per well in 96-well plates and treated with each drug (at a dose range from 1 nM to 10 μM) for 3 days. Each experimental point was conducted in six replicates and all tests were repeated more than three times. IC50 data was obtained from a nonlinear regression model with sigmoidal dose response using GraphPad Prism (GraphPad Software, Inc.).

HER2 mutations = settings: Phase I and II clinical data; cited from earlier work
[2] = test system: Calu-3 (Her2 amplification); experiment: Antiproliferative activities in lung cancer cells, Calu-3; format: cell-based; settings: Homo sapiens
Protocol: as §1

[3] = test system: DFCI429 (Her2 amplification); experiment: Antiproliferative activities in lung cancer cells, DFCI429; format: cell-based
Protocol: as §1

[4] = biological target: T1, HER2 insYVMA (A775_G776insYVMA) (Homo sapiens, UniProt P04626, INS775YVMA); settings: afatinib as a single agent; dacomitinib phase II trial, 13 patients; cited from earlier work
T1 construct: no response in all 13 patients with HER2 insYVMA (A775_G776insYVMA); host or cells: patients' tumours

H1781 (HER2 InsVC) = experiment: Antiproliferative activities in lung cancer cells, H1781; format: cell-based; settings: NCI-H1781
Protocol: as §1
(§2) All ERBB insertion mutations were generated by using the Quikchange II XL Site-Directed Mutagenesis Kit (Agilent Tech) according to the manufacturer's protocol. The insertion mutations and wildtype form of human EGFR and HER2 were transduced into Ba/F3 cells by retroviral infection followed by treatment of puromycin and withdrawal of interleukin-3 for selection. Transformed Ba/F3 cells and the NSCLC cell line H1781 (with HER2 insertion VC) were cultured in Roswell Park Memorial Institute-1640 medium (Gibco) with 10% fetal bovine serum and 1% penicillin/streptomycin (Gibco). Wild-type EGFR Ba/F3 cells were cultured in the same media supplemented with EGF (10 ng/ml).
(§3) Cell growth inhibition was assessed by MTS assay for Ba/F3 and H1781 cells. A total of 3,000-4,000 cells were seeded for per well in 96-well plates, and were exposed to representative compounds of the application (1 nM to 10 μM) for 72 hours. All experimental points included 6 wells. […] The growth curves were fitted using a nonlinear regression model with sigmoidal dose response.
(§4) Activities of representative compounds of the present application in inhibiting HER2 were tested by MTS assay (for Ba/F3 cells and H1781 cells). For each assay, a total of 3,000-4,000 cells were seeded per well in 96-well plates and were exposed to indicated compounds with a concentration of […] for 72 hours.

Ba/F3 cells WT EGFR = Ba/F3 cells WT EGFR (Homo sapiens, UniProt P00533); experiment: Antiproliferative activities (MTS assay), Ba/F3 cells WT EGFR; format: cell-based; settings: 72 hours
Protocol: as §1
as §2, with “Transformed Ba/F3 cells and the NSCLC cell line H1781 (with HER2 insertion VC) were cultured in Roswell Park Memorial Institute-1640 medium (Gibco) with 10% fetal bovine serum and 1% penicillin/streptomycin (Gibco).” left out
as §3, §4

Ba/F3 cells HER2 InsYVMA = Ba/F3 cells HER2 InsYVMA (Homo sapiens, UniProt P04626, DUP772-775, cells depend on it); experiment: Antiproliferative activities (MTS assay), Ba/F3 cells HER2 InsYVMA; format: cell-based; settings: 72 hours
Protocol: as §1
as §2, with “Transformed Ba/F3 cells and the NSCLC cell line H1781 (with HER2 insertion VC) were cultured in Roswell Park Memorial Institute-1640 medium (Gibco) with 10% fetal bovine serum and 1% penicillin/streptomycin (Gibco).” left out
as §3, §4

Ba/F3 cells HER2 InsWLV = Ba/F3 cells HER2 InsWLV (Homo sapiens, UniProt P04626, DELINS774-774WLV, cells depend on it); experiment: Antiproliferative activities (MTS assay), Ba/F3 cells HER2 InsWLV; format: cell-based; settings: 72 hours
Protocol: as §1
as §2, with “Transformed Ba/F3 cells and the NSCLC cell line H1781 (with HER2 insertion VC) were cultured in Roswell Park Memorial Institute-1640 medium (Gibco) with 10% fetal bovine serum and 1% penicillin/streptomycin (Gibco).” left out
as §3, §4

WT EGFR = WT EGFR (Homo sapiens, UniProt P00533); experiment: Biochemical activities, WT EGFR
WT HER2 = WT HER2 (Homo sapiens, UniProt P04626); experiment: Biochemical activities, WT HER2
Ba/F3 cells HER2 InsVC = Ba/F3 cells HER2 InsVC (Homo sapiens, UniProt P04626, DELINS776-776VC, cells depend on it); experiment: Antiproliferative activities (MTS assay), Ba/F3 cells HER2 InsVC; format: cell-based; settings: 72 hours
Protocol: as §1
as §2, with “Transformed Ba/F3 cells and the NSCLC cell line H1781 (with HER2 insertion VC) were cultured in Roswell Park Memorial Institute-1640 medium (Gibco) with 10% fetal bovine serum and 1% penicillin/streptomycin (Gibco).” left out
as §3, §4

Ba/F3 cells HER2 InsGSP = Ba/F3 cells HER2 InsGSP (Homo sapiens, UniProt P04626, DUP778-780, cells depend on it); experiment: Antiproliferative activities (MTS assay), Ba/F3 cells HER2 InsGSP; format: cell-based; settings: 72 hours
Protocol: as §1
as §2, with “Transformed Ba/F3 cells and the NSCLC cell line H1781 (with HER2 insertion VC) were cultured in Roswell Park Memorial Institute-1640 medium (Gibco) with 10% fetal bovine serum and 1% penicillin/streptomycin (Gibco).” left out
as §3, §4

Ba/F3 cells WT HER2 [5] = biological target: T2, Ba/F3 cells WT HER2 (Homo sapiens, UniProt P04626); experiment: Antiproliferative activities (MTS assay), Ba/F3 cells WT HER2; format: cell-based; settings: Ba/F3 cells, 72 hours, MTS
T2 construct: Antiproliferative Activities (Ba/F3 cells) WT HER2; other: Ba/F3 cells, 72 hours, MTS
Protocol: as §1
as §2, with “Transformed Ba/F3 cells and the NSCLC cell line H1781 (with HER2 insertion VC) were cultured in Roswell Park Memorial Institute-1640 medium (Gibco) with 10% fetal bovine serum and 1% penicillin/streptomycin (Gibco).” left out
as §3, §4

Ba/F3 cells WT HER2 [6] = experiment: as above; format: cell-based, human; settings: for EGFR EC50/HER2 EC50: Ba/F3 cells, ratio WT EGFR to WT HER2
Protocol: as §1
as §2, with “Transformed Ba/F3 cells and the NSCLC cell line H1781 (with HER2 insertion VC) were cultured in Roswell Park Memorial Institute-1640 medium (Gibco) with 10% fetal bovine serum and 1% penicillin/streptomycin (Gibco).” left out
as §3, §4

WT EGFR, sequence (P00533 25-1210): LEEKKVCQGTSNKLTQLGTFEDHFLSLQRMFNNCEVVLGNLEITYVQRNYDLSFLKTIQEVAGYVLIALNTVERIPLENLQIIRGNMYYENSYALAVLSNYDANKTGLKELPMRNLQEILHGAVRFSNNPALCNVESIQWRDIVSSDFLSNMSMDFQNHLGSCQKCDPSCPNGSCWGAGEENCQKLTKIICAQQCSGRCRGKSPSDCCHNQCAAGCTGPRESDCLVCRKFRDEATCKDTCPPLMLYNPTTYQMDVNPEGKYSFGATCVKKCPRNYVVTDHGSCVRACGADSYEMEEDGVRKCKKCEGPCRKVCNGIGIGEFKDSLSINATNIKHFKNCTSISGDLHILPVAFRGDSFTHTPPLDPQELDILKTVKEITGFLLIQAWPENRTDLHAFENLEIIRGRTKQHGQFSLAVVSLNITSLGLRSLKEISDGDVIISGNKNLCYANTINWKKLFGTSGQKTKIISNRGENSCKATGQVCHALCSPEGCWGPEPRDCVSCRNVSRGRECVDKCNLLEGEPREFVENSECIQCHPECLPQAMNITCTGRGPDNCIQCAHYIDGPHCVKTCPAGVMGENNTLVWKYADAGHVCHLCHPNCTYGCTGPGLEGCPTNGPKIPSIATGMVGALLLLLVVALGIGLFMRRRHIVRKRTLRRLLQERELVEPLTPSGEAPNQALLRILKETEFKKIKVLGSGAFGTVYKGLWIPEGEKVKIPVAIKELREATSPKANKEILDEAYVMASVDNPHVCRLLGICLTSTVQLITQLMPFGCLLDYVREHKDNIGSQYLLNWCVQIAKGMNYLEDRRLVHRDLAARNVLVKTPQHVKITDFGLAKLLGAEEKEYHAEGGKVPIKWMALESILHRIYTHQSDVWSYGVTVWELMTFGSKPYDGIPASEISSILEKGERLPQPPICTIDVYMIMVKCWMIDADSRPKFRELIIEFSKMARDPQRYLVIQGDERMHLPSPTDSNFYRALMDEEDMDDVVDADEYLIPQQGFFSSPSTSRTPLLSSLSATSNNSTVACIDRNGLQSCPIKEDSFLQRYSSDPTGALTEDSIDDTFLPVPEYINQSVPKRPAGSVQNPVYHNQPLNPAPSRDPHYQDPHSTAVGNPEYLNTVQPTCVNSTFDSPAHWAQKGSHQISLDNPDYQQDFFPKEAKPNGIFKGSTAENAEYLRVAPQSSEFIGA
Ba/F3 cells WT EGFR, sequence (P00533 whole entry, change not shown): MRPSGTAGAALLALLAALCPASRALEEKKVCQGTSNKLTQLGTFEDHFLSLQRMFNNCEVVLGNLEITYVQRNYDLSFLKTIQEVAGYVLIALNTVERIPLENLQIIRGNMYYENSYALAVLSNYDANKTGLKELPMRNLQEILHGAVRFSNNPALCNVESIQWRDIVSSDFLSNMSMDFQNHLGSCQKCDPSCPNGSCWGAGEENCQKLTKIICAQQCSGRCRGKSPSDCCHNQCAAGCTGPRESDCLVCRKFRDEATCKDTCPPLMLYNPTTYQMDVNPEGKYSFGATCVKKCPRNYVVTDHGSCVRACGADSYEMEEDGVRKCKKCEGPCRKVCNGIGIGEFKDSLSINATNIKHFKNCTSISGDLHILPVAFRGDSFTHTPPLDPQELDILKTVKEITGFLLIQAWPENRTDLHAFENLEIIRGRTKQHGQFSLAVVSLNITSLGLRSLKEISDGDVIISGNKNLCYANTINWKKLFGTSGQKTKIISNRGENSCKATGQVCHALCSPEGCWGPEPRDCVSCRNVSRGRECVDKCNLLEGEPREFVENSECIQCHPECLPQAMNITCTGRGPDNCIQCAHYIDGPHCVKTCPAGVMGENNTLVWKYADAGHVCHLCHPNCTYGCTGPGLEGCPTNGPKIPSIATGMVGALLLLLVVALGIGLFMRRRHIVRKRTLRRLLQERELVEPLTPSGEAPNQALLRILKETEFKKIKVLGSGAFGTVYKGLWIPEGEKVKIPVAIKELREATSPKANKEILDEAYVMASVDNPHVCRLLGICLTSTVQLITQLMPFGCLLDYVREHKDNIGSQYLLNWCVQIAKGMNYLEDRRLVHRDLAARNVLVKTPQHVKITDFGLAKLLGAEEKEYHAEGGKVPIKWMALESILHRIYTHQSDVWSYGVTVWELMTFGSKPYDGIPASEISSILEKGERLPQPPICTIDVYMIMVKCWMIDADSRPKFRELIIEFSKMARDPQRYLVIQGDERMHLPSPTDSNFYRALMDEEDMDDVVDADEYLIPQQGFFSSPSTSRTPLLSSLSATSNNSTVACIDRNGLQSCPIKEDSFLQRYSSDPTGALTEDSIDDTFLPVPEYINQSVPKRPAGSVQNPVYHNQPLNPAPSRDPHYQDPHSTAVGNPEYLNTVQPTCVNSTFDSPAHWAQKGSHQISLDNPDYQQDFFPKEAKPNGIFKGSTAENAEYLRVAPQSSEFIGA

Row | Structure (SMILES) | EC50 [1] | EC50 [2] | EC50 [3] | EC50 (H1781 (HER2 InsVC)) | EC50 (Ba/F3 cells WT EGFR) | EC50 (Ba/F3 cells HER2 InsYVMA) | EC50 (Ba/F3 cells HER2 InsWLV) | EC50 (WT EGFR) | EC50 (WT HER2) | EC50 (Ba/F3 cells HER2 InsVC) | EC50 (Ba/F3 cells HER2 InsGSP) | EC50 (Ba/F3 cells WT HER2 [5]) | EGFR EC50/HER2 EC50 (Ba/F3 cells WT HER2 [6]) | response to treatment of patients harboring HER2 mutations (HER2 mutations) | response of patients with HER2 insYVMA [4] | inhibition of HER2 and its mutant over EGFR (Ba/F3 cells WT HER2 [6]; FIG. 4 bar graph)
1 | CCOc1cc2ncc(C#N)c(Nc3ccc(Oc4ccn5ncnc5c4)c(C)c3)c2cc1NC(=O)/C=C/CN(C)C [Compound 1, (E)-N-(4-((4-([1,2,4]triazolo[1,5-a]pyridin-7-yloxy)-3-methylphenyl)amino)-3-cyano-7-ethoxyquinolin-6-yl)-4-(dimethylamino)but-2-enamide] | < 100 nM | < 100 nM | 100 to 250 nM | 100 to 250 nM | 250 to 500 nM | < 100 nM | < 100 nM | 100 to 250 nM | < 100 nM | < 100 nM | < 100 nM | < 100 nM | 32 |  |  | selective inhibition
2 | CCOc1cc2ncc(C#N)c(Nc3ccc(Oc4ccn5ncnc5c4)c(F)c3)c2cc1NC(=O)/C=C/CN(C)C [Compound 2] |  |  |  |  | > 500 nM | < 100 nM | 100 to 250 nM | 100 to 250 nM | < 100 nM | 250 to 500 nM | < 100 nM | < 100 nM | 222 |  |  | 
3 | CCOc1cc2ncc(C#N)c(Nc3ccc(Oc4ccn5ccnc5c4)c(C)c3)c2cc1NC(=O)/C=C/CN(C)C [Compound 4] |  |  |  |  | > 500 nM | < 100 nM | 100 to 250 nM |  |  | < 100 nM | < 100 nM | < 100 nM | 49 |  |  | 
4 | CCOc1cc2ncc(C#N)c(Nc3ccc(Oc4ccn5nccc5c4)c(C)c3)c2cc1NC(=O)/C=C/CN(C)C [Compound 5] |  |  |  |  | 100 to 250 nM | < 100 nM | 100 to 250 nM |  |  | < 100 nM | < 100 nM | < 100 nM | 6 |  |  | 
5 | COc1cc2ncnc(Nc3ccc(F)c(Cl)c3)c2cc1NC(=O)/C=C/CN1CCCCC1 [dacomitinib] |  |  |  |  |  |  |  |  |  |  |  |  |  | partially responded | no response | 

Continued, in another order:

Row | EC50 [1] | EC50 [2] | EC50 [3] | EC50 (H1781 (HER2 InsVC)) | EC50 (Ba/F3 cells WT EGFR) | EC50 (Ba/F3 cells HER2 InsYVMA) | EC50 (Ba/F3 cells HER2 InsWLV) | EC50 (WT EGFR) | EC50 (WT HER2) | EC50 (Ba/F3 cells HER2 InsVC) | EC50 (Ba/F3 cells HER2 InsGSP) | EC50 (Ba/F3 cells WT HER2 [5]) | EGFR EC50/HER2 EC50 (Ba/F3 cells WT HER2 [6]) | Structure (SMILES) | response to treatment of patients harboring HER2 mutations (HER2 mutations) | response of patients with HER2 insYVMA [4] | inhibition of HER2 and its mutant over EGFR (Ba/F3 cells WT HER2 [6]; FIG. 4 bar graph)
6 | < 100 nM | 100 to 250 nM | 100 to 250 nM | 100 to 250 nM |  |  |  |  |  |  |  |  |  | CN(C)C/C=C/C(=O)Nc1cc2c(Nc3ccc(F)c(Cl)c3)ncnc2cc1O[C@H]1CCOC1 [Afatinib] | partially responded | durable responses | 
7 |  |  |  |  | 250 to 500 nM | < 100 nM | < 100 nM |  |  | < 100 nM | < 100 nM | < 100 nM | 87 | CCOc1cc2ncc(C#N)c(Nc3ccc(Oc4ccn5ncnc5c4)c(Cl)c3)c2cc1NC(=O)/C=C/CN(C)C [Compound 3] |  |  | 
8 |  |  |  |  | > 500 nM | < 100 nM | 100 to 250 nM |  |  | < 100 nM | < 100 nM | < 100 nM | 178 | CCOc1cc2ncc(C#N)c(Nc3ccc(Oc4ccc5ccn(C)c5c4)c(C)c3)c2cc1NC(=O)/C=C/CN(C)C [Compound 6] |  |  | 
9 | 100 to 250 nM | ≥ 500 nM | ≥ 500 nM | ≥ 500 nM | > 500 nM | 100 to 250 nM | 250 to 500 nM | 250 to 500 nM | < 100 nM | > 500 nM | 100 to 250 nM | 250 to 500 nM | 18 | Cc1cc(Nc2ncnc3ccc(NC4=NC(C)(C)CO4)cc23)ccc1Oc1ccn2ncnc2c1 [Irbinitinib, reference compound] |  |  | 
